Laboratory results from BindingDB's records for doi:10.1016/j.bmcl.2004.01.094 (Arqule, 2004).

Key:
[1] = molecular target: Methionyl-tRNA synthetase (Staphylococcus aureus); assay: Inhibition of Staphylococcus aureus methionyl-tRNA synthetase (SaMetRS)
[2] = molecular target: Methionyl-tRNA synthetase (Enterococcus faecalis); assay: Inhibition of Enterococci faecalis methionyl-tRNA synthetase (EfMetRS)
[3] = molecular target: Methionyl-tRNA synthetase (Staphylococcus aureus); assay: Inhibition of Staphylococcus aureus methionyl-tRNA synthetase (SaMetRS); remark: listed apart in the source

| Compound | IC50 [1] [nM] | IC50 [2] [nM] | IC50 [3] [nM] |
| --- | --- | --- | --- |
| NC(=O)[C@H](Cc1ccc(O)cc1)NC(=O)[C@@H]1CCCN1/C=C1\N=C(c2ccc(Br)cc2)OC1=O [(S)-1-[2-(4-Bromo-phenyl)-5-oxo-oxazol-(4Z)-ylidenemethyl]-pyrrolidine-2-carboxylic acid [(S)-1-carbamoyl-2-(4-hydroxy-phenyl)-ethyl]-amide] | 1100 | 48000 | – |
| CC/C(=C1/N=C(c2ccc(Br)cc2)OC1=O)N1CCC[C@H]1C(=O)N[C@@H](Cc1ccc(O)cc1)C(N)=O [(S)-1-{1-[2-(4-Bromo-phenyl)-5-oxo-oxazol-(4Z)-ylidene]-propyl}-pyrrolidine-2-carboxylic acid [(S)-1-carbamoyl-2-(4-hydroxy-phenyl)-ethyl]-amide] | – | 5930 | 850 |
| CCC/C(=C1/N=C(c2ccc(Br)cc2)OC1=O)N1CC[C@H]1C(=O)N[C@@H](Cc1ccc(O)cc1)C(N)=O [(S)-1-{1-[2-(4-Bromo-phenyl)-5-oxo-oxazol-(4Z)-ylidene]-butyl}-azetidine-2-carboxylic acid [(S)-1-carbamoyl-2-(4-hydroxy-phenyl)-ethyl]-amide] | – | – | 87 |
| NC(=O)[C@H](Cc1ccc(O)cc1)NC(=O)[C@@H]1CCN1/C=C1\N=C(c2ccc(Br)cc2)OC1=O [(S)-1-[2-(4-Bromo-phenyl)-5-oxo-oxazol-(4Z)-ylidenemethyl]-azetidine-2-carboxylic acid [(S)-1-carbamoyl-2-(4-hydroxy-phenyl)-ethyl]-amide] | – | 1400 | 510 |
| NC(=O)[C@H](Cc1ccc(O)cc1)NC(=O)[C@@H]1CCCN1/C=C1\N=C(c2ccc(Cl)cc2Cl)OC1=O [(S)-1-[2-(2,4-Dichloro-phenyl)-5-oxo-oxazol-(4Z)-ylidenemethyl]-pyrrolidine-2-carboxylic acid [(S)-1-carbamoyl-2-(4-hydroxy-phenyl)-ethyl]-amide] | – | 14000 | 680 |
| CCC/C(=C1/N=C(c2ccc(Br)cc2)OC1=O)N1CCC[C@H]1C(=O)N[C@@H](Cc1ccc(O)cc1)C(N)=O [(S)-1-{1-[2-(4-Bromo-phenyl)-5-oxo-oxazol-(4Z)-ylidene]-butyl}-pyrrolidine-2-carboxylic acid [(S)-1-carbamoyl-2-(4-hydroxy-phenyl)-ethyl]-amide] | 760 | 3110 | – |
